Each molecule was assayed against Human recombinant GST-PI3Kγ (Homo sapiens, UniProt P48736) (assay: High Throughput PI3K Lipid Kinase Assay (scintillation proximity assay, neomycin-coated SPA beads)). Settings: not given.
Format: biochemical
Text: a) High Throughput PI3K Lipid Kinase Assay (Binding Assay):
The efficacy of compounds of the invention in inhibiting the PI3K induced-lipid phosphorylation may be tested in the following binding assay.
The assay combines the scintillation proximity assay technology (SPA, Amersham) with the capacity of neomycin (a polycationic antibiotic) to bind phospholipids with high affinity and specificity. The Scintillation Proximity Assay is based on the properties of weakly emitting isotopes (such as ^3H, ^125I, ^33P). Coating SPA beads with neomycin allows the detection of phosphorylated lipid substrates after incubation with recombinant PI3K and radioactive ATP in the same well, by capturing the radioactive phospholipids to the SPA beads through their specific binding to neomycin.
To a 384 wells MTP containing 5 μl of the test compound of Formula (I) (solubilized in 6% DMSO; to yield a concentration of 100, 30, 10, 3, 1, 0.3, 0.1, 0.03, 0.01, 01 μM of the test compound), the following assay components are added. 1) 5 μl (58 ng) of Human recombinant GST-PI3Kγ (in Hepes 40 mM, pH 7.4, DTT 1 mM and ethylenglycol 5%) 2) 10 μl of lipid micelles and 3) 10 μl of Kinase buffer ([^33P]γ ATP. 45 μM/60 nCi, MgCl mM, DTT 1 mM, β Glycerophosphate 1 mM, NVO4 100 μM, Na Cholate 0.3%, in Hepes 40 mM, pH 7.4). After incubation at room temperature for 180 minutes, with gentle agitation, the reaction is stopped by addition of 60 μl of a solution containing 100 μg of neomycin-coated PVT SPA beads in PBS containing ATP 10 mM and EDTA 5 mM. The assay is further incubated at room temperature for 60 minutes with gentle agitation to allow binding of phospholipids to neomycin-SPA beads. After precipitation of the neomycin-coated PVT SPA beads for 5 minutes at 1500×g, radioactive PtdIns(3)P is quantified by scintillation counting in a Wallac MicroBeta™ plate counter.
The values indicated in Table I below refer to the IC50 (μM) with respect to PI3Kγ, i.e. the amount necessary to achieve 50% inhibition of said target. Said values show a considerable inhibitory potency of thiazole compounds with regard to PI3Kγ.

Sequence of Human recombinant GST-PI3Kγ (P48736 whole entry): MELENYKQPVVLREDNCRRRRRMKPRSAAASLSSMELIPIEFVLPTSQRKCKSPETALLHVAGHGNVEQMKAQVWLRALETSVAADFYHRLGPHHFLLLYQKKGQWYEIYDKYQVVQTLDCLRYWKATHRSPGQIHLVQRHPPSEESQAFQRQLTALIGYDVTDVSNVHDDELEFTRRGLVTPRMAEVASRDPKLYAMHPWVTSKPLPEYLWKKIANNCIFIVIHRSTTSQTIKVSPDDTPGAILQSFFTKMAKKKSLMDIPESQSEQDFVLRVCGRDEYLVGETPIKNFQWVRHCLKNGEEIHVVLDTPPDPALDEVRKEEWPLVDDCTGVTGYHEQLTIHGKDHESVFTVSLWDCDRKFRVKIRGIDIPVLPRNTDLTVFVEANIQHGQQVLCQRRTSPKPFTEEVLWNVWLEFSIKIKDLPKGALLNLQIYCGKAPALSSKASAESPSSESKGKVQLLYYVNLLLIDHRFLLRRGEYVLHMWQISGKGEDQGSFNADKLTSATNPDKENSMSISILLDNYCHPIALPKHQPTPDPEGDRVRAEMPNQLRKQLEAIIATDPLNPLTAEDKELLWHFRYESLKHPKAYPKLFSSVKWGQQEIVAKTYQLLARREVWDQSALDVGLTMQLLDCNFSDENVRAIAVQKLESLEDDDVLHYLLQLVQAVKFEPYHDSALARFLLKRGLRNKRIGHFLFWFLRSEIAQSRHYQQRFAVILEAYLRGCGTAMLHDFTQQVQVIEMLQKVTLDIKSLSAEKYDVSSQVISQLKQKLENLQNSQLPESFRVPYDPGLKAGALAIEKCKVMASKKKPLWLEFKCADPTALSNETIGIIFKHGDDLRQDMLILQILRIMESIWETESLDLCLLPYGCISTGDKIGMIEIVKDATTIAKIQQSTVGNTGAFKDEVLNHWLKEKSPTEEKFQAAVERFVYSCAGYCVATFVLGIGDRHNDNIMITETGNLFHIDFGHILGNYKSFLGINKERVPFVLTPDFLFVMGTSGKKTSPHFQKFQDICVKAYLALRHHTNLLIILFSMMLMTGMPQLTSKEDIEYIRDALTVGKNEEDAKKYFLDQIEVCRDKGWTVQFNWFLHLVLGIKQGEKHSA

First: CCOC(=O)c1nc(-c2sc(NC(C)=O)nc2C)cs1 [Example 1, Ethyl 2′-(acetylamino)-4′-methyl-4,5′-bi-1,3-thiazole-2-carboxylate]
Second: CC(=O)Nc1nc(C)c(-c2csc(C(=O)O)n2)s1 [Example 4, 2′-(Acetylamino)-4′-methyl-4,5′-bi-1,3-thiazole-2-carboxylic acid]
The IC50 of the first is 1.8-fold higher: 870 nM for the first, 494 nM for the second.

Going from `CC(=O)Nc1nc(C)c(-c2csc(C(=O)NCC3CCCO3)n2)s1` (stereo not shown) [Example 6, 2′-(Acetylamino)-4′-methyl-N-(tetrahydrofuran-2-ylmethyl)-4,5′-bi-1,3-thiazole-2-carboxamide] to `CC(=O)Nc1nc(C)c(-c2csc(C(=O)N3CCOCC3)n2)s1` [Example 8, N-[4′-methyl-2-(morpholin-4-ylcarbonyl)-4,5′-bi-1,3-thiazol-2′-yl]acetamide], the IC50 falls from 355 nM to 186 nM (1.9-fold). The second is the more potent here.

`CC(=O)Nc1nc(C)c(-c2csc(C(=O)N3CCN(C)CC3)n2)s1` [Example 9, N-{4′-methyl-2-[(4-methylpiperazin-1-yl)carbonyl]-4,5′-bi-1,3-thiazol-2′-yl}acetamide] and `COCCNC(=O)Nc1nc(C)c(-c2csc(C(=O)N3CCOCC3)n2)s1` [Example 36, N-(2-methoxyethyl)-N′-[4′-methyl-2-(morpholin-4-ylcarbonyl)-4,5′-bi-1,3-thiazol-2′-yl]urea] are within 1.5-fold of each other in IC50: 601 nM for the first, 795 nM for the second.

First: CC(=O)Nc1nc(C)c(-c2csc(C(=O)NCCCN(C)C)n2)s1 [Example 10, 2′-(Acetylamino)-N-[3-(dimethylamino)propyl]-4′-methyl-4,5′-bi-1,3-thiazole-2-carboxamide]
Second: CC(=O)Nc1nc(C)c(-c2csc(C(=O)Nc3nnn[nH]3)n2)s1 [Example 13, 2′-(acetylamino)-4′-methyl-N-1H-tetrazol-5-yl-4,5′-bi-1,3-thiazole-2-carboxamide]
The IC50 of the first is 170-fold higher: 2200 nM for the first, 13 nM for the second.

First: CC(=O)Nc1nc(C)c(-c2csc(Cc3nnn[nH]3)n2)s1 [Example 23, N-[4′-methyl-2-(2H-tetrazol-5-ylmethyl)-4,5′-bi-1,3-thiazol-2′-yl]acetamide]
Second: CC(=O)Nc1nc(C)c(-c2csc(C(=O)Nc3cccc(-c4nnc(N)s4)c3)n2)s1 [Example 25, 2′-(acetylamino)-N-[3-(5-amino-1,3,4-thiadiazol-2-yl)phenyl]-4′-methyl-4,5′-bi-1,3-thiazole-2-carboxamide]
The IC50 of the first is 4.7-fold lower: 328 nM for the first, 1540 nM for the second. The first is the more potent here.

Work on `CCOC(=O)c1nc(-c2sc(Nc3cnccn3)nc2C)cs1` [Example 54, Ethyl 4′-methyl-2′-(pyrazin-2-ylamino)-4,5′-bi-1,3-thiazole-2-carboxylate] yielded an IC50 of 1420 nM.

These molecules were tested on Akt/PKB phosphorylation in Raw 264-7 macrophages (assay: Cell based ELISA to monitor PI3K inhibition: Akt/PKB phosphorylation in macrophages after stimulation with Complement 5a). Settings: Mus musculus, RAW264.7, 50 nM Complement 5a stimulation, phospho Serine 473 Akt, read-out: Cell Assay (P-Akt, Elisa) IC50.
Method: b) Cell Based ELISA to Monitor PI3K Inhibition:
The efficacy of compounds of the invention in inhibiting the PI3K induced Akt/PKB phosphorylation may be tested in the following cell based assay.
Measurement of Akt/PKB phosphorylation in macrophages after stimulation with Complement 5a: Raw 264: Raw 264-7 macrophages (cultured in DMEM-F12 medium containing 10% Fetal Calf serum and antibiotics) are plated at 20'000 cells/well in a 96 MTP 24 h before cell stimulation. Prior to the stimulation with 50 nM of Complement 5a during 5 minutes, Cells are serum starved for 2 h, and pretreated with inhibitors for 20 minutes. After stimulation cells are fixed in 4% formaldehyde for 20 minutes and washed 3 times in PBS containing 1% Triton X-100 (PBS/Triton). […] Next, phosphorylated Akt/PKB is detected by an overnight incubation at 4° C. with primary antibody (anti phospho Serine 473 Akt IHC, Cell Signaling) diluted 800-fold in PBS/Triton, containing 5% bovine serum albumin (BSA). After 3 washes in PBS/Triton, cells are incubated for 60 minutes with a peroxidase conjugated goat-anti-rabbit secondary antibody ( 1/400 dilution in PBS/Triton, containing 5% BSA), washed 3 times in PBS/Triton, and 2 times in PBS and further incubated in 100 μl of luminescent substrate reagent solution (Pierce) for 2 minutes, followed by the reading (1 s/well). […]

`C=CCNC(=O)c1nc(-c2sc(NC(C)=O)nc2C)cs1` [Example 2, 2′-(Acetylamino)-N-allyl-4′-methyl-4,5′-bi-1,3-thiazole-2-carboxamide] and `CC(=O)Nc1nc(C)c(-c2csc(C(=O)N3CCOCC3)n2)s1` [Example 8, N-[4′-methyl-2-(morpholin-4-ylcarbonyl)-4,5′-bi-1,3-thiazol-2′-yl]acetamide] are within 1.5-fold of each other in IC50: 710 nM for the first, 910 nM for the second.
